According to paper PMC10700596 (Nature Communications, 2023):

Target: T1, EP4R (Homo sapiens, UniProt P35408)
T1 construct: Tango fusion cassette (only 'tango' is printed); expressed in transfected cells; host or cells: HTLA cells (tTA-dependent luciferase reporter, β-arrestin2-TEV fusion)
Experiment: PRESTO-Tango β-arrestin2 recruitment assay
Type: cell-based
Conditions: for Ki: PRESTO-Tango Ki* (nM)

[1] = PRESTO-Tango IC50 (nM), antagonist mode, EC80 of PGE2
[2] = calculated using the Cheng Prusoff equation
[3] = PRESTO-Tango -logIC50, antagonist mode, EC80 of PGE2

T1 sequence (P35408 whole entry, the tested form may be a part): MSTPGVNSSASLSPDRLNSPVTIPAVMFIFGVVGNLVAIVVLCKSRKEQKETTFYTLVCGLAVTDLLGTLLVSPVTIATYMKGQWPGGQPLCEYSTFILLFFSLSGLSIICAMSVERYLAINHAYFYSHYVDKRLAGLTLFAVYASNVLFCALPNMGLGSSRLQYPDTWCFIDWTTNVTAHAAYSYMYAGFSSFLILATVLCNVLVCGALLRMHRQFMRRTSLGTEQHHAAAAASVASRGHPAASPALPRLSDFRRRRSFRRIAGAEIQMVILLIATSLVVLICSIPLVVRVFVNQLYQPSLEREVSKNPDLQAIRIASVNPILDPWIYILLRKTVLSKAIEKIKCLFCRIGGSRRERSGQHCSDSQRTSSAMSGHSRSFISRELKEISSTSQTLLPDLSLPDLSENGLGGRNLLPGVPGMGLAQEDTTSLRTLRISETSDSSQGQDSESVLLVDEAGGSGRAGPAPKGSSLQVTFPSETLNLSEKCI

Row | Structure (SMILES) | IC50 [1] [nM] | Ki [2] [nM] | IC50 [3] [nM] | further results
1 | Cc1cc(C(=O)N[C@@H]2CC[C@@H](C(=O)O)CCC2(F)F)c(C)n1-c1ccccc1F [Compound 113, CC1=CC(C(=O)N[C@@H]2CC[C@H](CCC2(F)F)C(=O)O)=C(C)N1C=3C=CC=CC3F] | – | – | – | IC50 (PRESTO-Tango -logIC50): 11000 nM; IC50 (PRESTO-Tango IC50 (nM)): > 10000 nM
2 | O=C(N[C@@H]1CC[C@@H](C(=O)O)CCC1(F)F)c1nn(-c2ccc(F)cc2)c2c1CCC2 [Compound 127, OC(=O)[C@@H]1CC[C@@H](NC(=O)C2=NN(C=3CCCC23)C=4C=CC(F)=CC4)C(F)(F)CC1] | 2170 | 434 | – | –
3 | O=C(NC1CCCC(C(=O)O)CC1)c1nn(-c2ccc(F)cc2)c2c1CCC2 (centres unmarked) [Compound 116, OC(=O)C1CCCC(CC1)NC(=O)C2=NN(C=3CCCC23)C=4C=CC(F)=CC4] | > 10000 | – | 17400 | –
4 | Cc1sc(C(=O)NC2CCCC(C(=O)O)CC2)cc1-c1ccc(F)cc1 (centres unmarked) [Compound 108, CC=1SC(=CC1C=2C=CC(F)=CC2)C(=O)NC3CCCC(CC3)C(=O)O] | > 10000 | – | 501000 | –
5 | Cc1cc(C(=O)NC2CCCC(C(=O)O)CC2)c(C)n1-c1ccccc1F (centres unmarked) [Compound 129, CC1=CC(C(=O)NC2CCCC(CC2)C(=O)O)=C(C)N1C=3C=CC=CC3F] | > 10000 | – | 479000 | –
6 | O=C(NC1CCCC(C(=O)O)CC1)c1nn(-c2ccccc2)c2c1CCC2 (centres unmarked) [Compound 98, OC(=O)C1CCCC(CC1)NC(=O)C2=NN(C=3CCCC23)C=4C=CC=CC4] | 2060 | 411 | – | –
7 | O=C(NC1CCCC(C(=O)O)CC1)c1csc(C2CCCCC2)n1 (centres unmarked) [Compound 106, OC(=O)C1CCCC(CC1)NC(=O)C2=CSC(=N2)C3CCCCC3] | > 10000 | – | 23400 | –
8 | O=C(O)C1CCC2(CC1)CC(Nc1ncnc3c1oc1ccccc13)C2 (centres unmarked) [Compound 84, OC(=O)C1CCC2(CC(C2)NC=3N=CN=C4C=5C=CC=CC5OC34)CC1] | 5730 | – | – | Ki: 1150 nM
9 | Cc1cc(C(=O)NC2CCCC(C(=O)O)CC2)c(C)n1-c1cccc(F)c1 (centres unmarked) [Compound 126, CC1=CC(C(=O)NC2CCCC(CC2)C(=O)O)=C(C)N1C=3C=CC=C(F)C3] | – | – | – | PRESTO-Tango -logIC50: unstable; IC50 (PRESTO-Tango IC50 (nM)): > 10000 nM
10 | Cc1nc2ncnn2c(NC2CC3(CCC(C(=O)O)CC3)C2)c1C (centres unmarked) [Compound 94, CC1=NC2=NC=NN2C(NC3CC4(C3)CCC(CC4)C(=O)O)=C1C] | – | – | – | IC50 (PRESTO-Tango -logIC50): 12000 nM; IC50 (PRESTO-Tango IC50 (nM)): > 10000 nM
11 | O=C(O)C1CCC2(CC1)CC(Nc1nc(C(F)(F)F)nc3ccccc13)C2 (centres unmarked) [Compound 90, OC(=O)C1CCC2(CC(C2)NC=3N=C(N=C4C=CC=CC34)C(F)(F)F)CC1] | 3870 | 774 | – | –
12 | CN(c1ncnc2[nH]c3ccccc3c12)C1CC2(CCC(C(=O)O)CC2)C1 (centres unmarked) [Compound 76, CN(C1CC2(C1)CCC(CC2)C(=O)O)C=3N=CN=C4NC=5C=CC=CC5C34] | – | – | – | IC50 (PRESTO-Tango IC50 (nM)): 1170 nM; Ki: 234 nM
13 | Cc1cc(C(=O)NC2CCCC(C(=O)O)CC2)c(C)n1-c1ccc(C(C)C)cc1 (centres unmarked) [Compound 122, CC(C)C=1C=CC(=CC1)N2C(C)=CC(C(=O)NC3CCCC(CC3)C(=O)O)=C2C] | 1150 | 229 | – | –
14 | O=C(NC1CCCC(C(=O)O)CC1)c1nn(-c2cccc(F)c2)c2c1CCC2 (centres unmarked) [Compound 123, OC(=O)C1CCCC(CC1)NC(=O)C2=NN(C=3CCCC23)C=4C=CC=C(F)C4] | – | 293 | – | IC50 (PRESTO-Tango IC50 (nM)): 1470 nM
15 | COc1ccc(-n2c(C)cc(C(=O)NC3CCCC(C(=O)O)CC3)c2C)cc1 (centres unmarked) [Compound 124, COC=1C=CC(=CC1)N2C(C)=CC(C(=O)NC3CCCC(CC3)C(=O)O)=C2C] | > 10000 | – | 53700 | –
16 | O=C(N[C@@H]1CC[C@@H](C(=O)O)CCC1(F)F)c1nn(-c2cccc(F)c2)c2c1CCC2 [Compound 121, OC(=O)[C@@H]1CC[C@@H](NC(=O)C2=NN(C=3CCCC23)C=4C=CC=C(F)C4)C(F)(F)CC1] | 1010 | 202 | 1000 | –
17 | O=C(O)C1CCC2(CC1)CC(Nc1ncnc3[nH]c4ncccc4c13)C2 (centres unmarked) [Compound 133, OC(=O)C1CCC2(CC(C2)NC=3N=CN=C4NC=5N=CC=CC5C34)CC1] | 1090 | 218 | – | –
